Calls of active or inactive are those of the source.
Key:
Genome polyprotein = Genome polyprotein (dengue virus type 2, UniProt P29990); test: Dengue-2 NS5 methyltransferase inhibitors, primary screen, biochemical, confirmation dose response (AID 588689); format: functional
[1] = biological target: T1, Replicative DNA helicase DnaB (Mycobacterium tuberculosis, UniProt P9WMR3); test: DnaB intein splicing inhibitors, dose response, biochemical, cell-free fluorescence (AID 449749); format: functional
T1 sequence (P9WMR3 whole entry): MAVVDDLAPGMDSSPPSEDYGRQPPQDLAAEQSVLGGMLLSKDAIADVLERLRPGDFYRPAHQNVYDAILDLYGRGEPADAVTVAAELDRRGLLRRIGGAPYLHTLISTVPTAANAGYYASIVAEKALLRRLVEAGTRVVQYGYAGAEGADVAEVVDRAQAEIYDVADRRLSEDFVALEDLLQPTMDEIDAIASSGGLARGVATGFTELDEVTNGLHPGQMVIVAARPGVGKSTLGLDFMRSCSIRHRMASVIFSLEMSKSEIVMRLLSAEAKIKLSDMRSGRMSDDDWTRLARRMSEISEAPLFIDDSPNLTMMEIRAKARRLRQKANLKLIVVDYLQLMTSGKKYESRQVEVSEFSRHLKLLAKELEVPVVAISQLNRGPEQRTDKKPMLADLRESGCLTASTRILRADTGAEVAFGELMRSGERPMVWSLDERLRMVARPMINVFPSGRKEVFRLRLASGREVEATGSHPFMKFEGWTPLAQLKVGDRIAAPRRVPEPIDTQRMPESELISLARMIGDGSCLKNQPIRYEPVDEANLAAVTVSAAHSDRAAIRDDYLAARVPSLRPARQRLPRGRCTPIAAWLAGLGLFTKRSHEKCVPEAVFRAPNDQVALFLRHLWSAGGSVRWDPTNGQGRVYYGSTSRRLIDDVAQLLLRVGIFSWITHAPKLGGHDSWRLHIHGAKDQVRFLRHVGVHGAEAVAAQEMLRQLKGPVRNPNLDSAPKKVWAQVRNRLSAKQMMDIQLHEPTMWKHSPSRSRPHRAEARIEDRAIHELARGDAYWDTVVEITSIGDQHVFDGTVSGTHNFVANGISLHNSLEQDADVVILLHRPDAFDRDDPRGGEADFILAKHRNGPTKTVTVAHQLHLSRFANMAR

Protein RecA = biological target: T2, Protein RecA (Mycobacterium tuberculosis, UniProt P9WHJ3); test: Fluorescence Cell-Free Homogeneous Dose Retest to Identify Inhibitors of RecA-Intein Splicing Activity. [Related pubchem assays (depositor defined):AID2097, AID2223, AID489010, AID492950]; format: functional
T2 sequence (P9WHJ3 whole entry): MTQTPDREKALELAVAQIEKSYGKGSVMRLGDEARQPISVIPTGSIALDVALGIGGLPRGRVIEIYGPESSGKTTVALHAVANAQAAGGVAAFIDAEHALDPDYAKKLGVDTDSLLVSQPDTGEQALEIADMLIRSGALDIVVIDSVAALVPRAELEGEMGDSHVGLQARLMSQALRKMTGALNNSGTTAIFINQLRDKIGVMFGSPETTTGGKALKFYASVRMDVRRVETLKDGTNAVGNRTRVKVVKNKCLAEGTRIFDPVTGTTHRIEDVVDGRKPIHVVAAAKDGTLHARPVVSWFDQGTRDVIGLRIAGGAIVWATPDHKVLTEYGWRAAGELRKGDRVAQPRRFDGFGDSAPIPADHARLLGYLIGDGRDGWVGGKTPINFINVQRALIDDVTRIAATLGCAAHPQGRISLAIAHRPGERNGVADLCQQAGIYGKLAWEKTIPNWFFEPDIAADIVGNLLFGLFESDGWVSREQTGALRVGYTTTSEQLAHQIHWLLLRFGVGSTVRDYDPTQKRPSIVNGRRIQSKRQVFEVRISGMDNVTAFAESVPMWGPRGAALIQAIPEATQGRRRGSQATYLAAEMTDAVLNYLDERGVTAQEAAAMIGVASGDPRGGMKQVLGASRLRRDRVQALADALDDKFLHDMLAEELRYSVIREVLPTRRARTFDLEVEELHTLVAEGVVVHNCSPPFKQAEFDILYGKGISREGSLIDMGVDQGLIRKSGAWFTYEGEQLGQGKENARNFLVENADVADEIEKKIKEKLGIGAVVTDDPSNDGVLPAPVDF

Cytochrome P450 2C19 = Cytochrome P450 2C19 (Homo sapiens, UniProt P33261); test: Cytochrome panel assay with activity outcomes. Panel member name: p450-cyp2c19 Compounds with AC50 equal or less than 10 uM are considered active; format: functional; details: read-out: AC50
Cytochrome P450 2D6 = Cytochrome P450 2D6 (Homo sapiens, UniProt P10635);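 further: CYP2D6 member of a cytochrome P450 panel assay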
Cytochrome P450 2C9 = Cytochrome P450 2C9 (Homo sapiens, UniProt P11712)
[2] = Luminescence Cell-Based Dose Response HTS to Identify Inhibitors of 5'UTR Stem-Loop Driven Prion Protein mRNA Translation in H4 Neuroglioblastoma Cells. [Related pubchem assays: 1827 (Project Summary), 1813 (Primary HTS)]; format: functional
[3] = inhibitors of intracellular T. cruzi replication, confirmation, NIH3T3 host cells, beta-gal luminescence (AID 2044); format: functional, cell-based;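 further: intracellular parasites grown in NIH/3T3 mouse fibroblasts as host cells; luminescent beta-galactosidase reporter signal from transgenic T. cruzi replicating inside host cells; inhibitors lower the luminescence signal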
[4] = cytotoxicity toward NIH3T3 fibroblasts, dose response, counter-screen, cell-based, ATP luminescence, mouse fibroblasts (AID 2010); format: functional;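 further: cells exposed to compound for about 90 hours before reading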
[5] = biological target: T3, High affinity choline transporter 1 (Homo sapiens, UniProt Q9GZV3); test: CHT inhibitors, dose response, cell-based, 5-point CRC, membrane potential dye (AID 504840); format: functional
T3 sequence (Q9GZV3 whole entry): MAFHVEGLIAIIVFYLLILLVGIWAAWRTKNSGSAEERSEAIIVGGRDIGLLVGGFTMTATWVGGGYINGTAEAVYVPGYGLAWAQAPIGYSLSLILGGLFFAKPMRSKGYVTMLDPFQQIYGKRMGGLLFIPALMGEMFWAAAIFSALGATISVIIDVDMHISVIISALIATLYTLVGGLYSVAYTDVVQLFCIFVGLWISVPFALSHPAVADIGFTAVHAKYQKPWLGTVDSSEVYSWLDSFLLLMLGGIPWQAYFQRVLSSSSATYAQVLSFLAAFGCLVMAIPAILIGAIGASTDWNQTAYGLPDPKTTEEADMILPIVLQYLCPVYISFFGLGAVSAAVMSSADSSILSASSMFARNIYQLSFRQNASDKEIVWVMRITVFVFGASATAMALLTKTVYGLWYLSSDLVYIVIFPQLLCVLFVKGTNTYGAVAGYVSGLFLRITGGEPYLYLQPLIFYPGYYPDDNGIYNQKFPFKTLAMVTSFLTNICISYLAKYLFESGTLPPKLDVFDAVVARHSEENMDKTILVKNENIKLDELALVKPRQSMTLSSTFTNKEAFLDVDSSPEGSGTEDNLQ

[6] = inhibitors of firefly luciferase expression or activity, dose response, H4 neuroglioma cells, luminescence (AID 1990); format: functional, cell-based
[7] = inhibitors of SNCA 5'UTR-driven reporter translation, confirmation, H4 neuroglioma cells, luminescence (AID 1988); format: functional, cell-based
Cytochrome P450 3A4 = Cytochrome P450 3A4 (Homo sapiens, UniProt P08684);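 further: CYP3A4 tested as one member of a cytochrome P450 panel screen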
cells = format: functional
[8] = Shn3 3'UTR reporter inhibitors, dose response, cell-based, Clone20 osteoblasts, firefly luciferase, cherry-picked (AID 624132); format: functional;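 further: firefly luciferase luminescence from reporter carrying the Shn3 3'UTR in osteoblasts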
[9] = HepG2 cell cytotoxicity, dose response, cytotoxicity control for Shn3 inhibitor project, CellTiter-Glo, cherry-picked (AID 624134); format: functional, cell-based
[10] = control 3'UTR Renilla luciferase suppression, dose response, counter-screen for Shn3 inhibitor project, cell-based, Clone20-Shn3RL, cherry-picked (AID 624133); format: functional
[11] = system: Streptococcus sp. 'group A'; test: growth inhibition of control SK(-) GAS strain, dose response, counter-screen for streptokinase expression inhibitor project, luminescence, kanamycin, BacTiterGlo, confirmation (AID 1900); format: functional, organism-based
Streptococcus = test: Group A Streptococcus viability loss, dose response, counter-screen for streptokinase expression inhibitor project, luminescence, BacTiterGlo (AID 1915); format: functional, organism-based;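 further: potency for reduction of bacterial viability or growth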
[12] = biological target: T4, Polyadenylate-binding protein 1 (Homo sapiens, UniProt P11940); test: PABP1 MLLE–PAM2 interaction inhibitors, dose response, miRNA deadenylation inhibitor project, biochemical, fluorescence polarization, Cy5-PAM2 peptide, secondary (AID 602260); format: functional; details: read-out: IC50_Mean
[13] = biological target: T4, Polyadenylate-binding protein 1; test: PABP1 MLLE–PAM2 binding inhibitor potency, dose response, biochemical, fluorescence polarization, FITC-PAM2 peptide (AID 602259); format: functional; details: read-out: IC50_Mean
[14] = biological target: Luciferin 4-monooxygenase (Photinus pyralis, UniProt P08659); test: firefly luciferase enzyme inhibitors, dose response, biochemical, luminescence (AID 1891)
[15] = Luminescence Cell-Based Dose Confirmation HTS to Identify Inhibitors of Platelet Dense Granule Release. [Related pubchem assays: 1663 (Primary HTS), 1678 (Summary of Project)]; format: functional

Chain of Cytochrome P450 3A4 (P08684 whole entry): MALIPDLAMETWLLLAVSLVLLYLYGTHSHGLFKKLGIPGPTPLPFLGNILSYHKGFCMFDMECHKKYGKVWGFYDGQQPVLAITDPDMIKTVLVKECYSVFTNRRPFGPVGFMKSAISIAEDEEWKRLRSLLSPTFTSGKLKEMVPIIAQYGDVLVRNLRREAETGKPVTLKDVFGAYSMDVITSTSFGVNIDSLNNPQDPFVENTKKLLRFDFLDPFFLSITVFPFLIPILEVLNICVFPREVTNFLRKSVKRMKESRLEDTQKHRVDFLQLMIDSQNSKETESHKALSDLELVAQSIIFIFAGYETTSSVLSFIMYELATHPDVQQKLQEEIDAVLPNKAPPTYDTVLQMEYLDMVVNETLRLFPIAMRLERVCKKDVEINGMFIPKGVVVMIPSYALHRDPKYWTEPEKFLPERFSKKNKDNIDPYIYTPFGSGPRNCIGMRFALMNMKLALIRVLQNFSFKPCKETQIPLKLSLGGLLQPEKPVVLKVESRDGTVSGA
Chain of Cytochrome P450 2D6 (P10635 whole entry): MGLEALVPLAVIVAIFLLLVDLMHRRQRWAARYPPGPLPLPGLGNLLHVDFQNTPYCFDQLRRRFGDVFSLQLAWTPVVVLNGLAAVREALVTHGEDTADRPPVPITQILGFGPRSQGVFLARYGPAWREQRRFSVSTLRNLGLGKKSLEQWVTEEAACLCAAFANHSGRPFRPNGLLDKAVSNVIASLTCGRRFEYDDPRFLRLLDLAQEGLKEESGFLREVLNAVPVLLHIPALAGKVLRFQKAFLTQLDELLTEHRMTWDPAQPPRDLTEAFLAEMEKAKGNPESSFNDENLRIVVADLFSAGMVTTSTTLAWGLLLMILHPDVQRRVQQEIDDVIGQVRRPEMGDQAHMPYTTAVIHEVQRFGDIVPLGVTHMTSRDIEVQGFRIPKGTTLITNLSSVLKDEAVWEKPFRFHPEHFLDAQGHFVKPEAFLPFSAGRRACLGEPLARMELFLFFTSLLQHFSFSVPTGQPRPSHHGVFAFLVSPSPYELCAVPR
Chain of Genome polyprotein (P29990 2492-3391 limits assumed): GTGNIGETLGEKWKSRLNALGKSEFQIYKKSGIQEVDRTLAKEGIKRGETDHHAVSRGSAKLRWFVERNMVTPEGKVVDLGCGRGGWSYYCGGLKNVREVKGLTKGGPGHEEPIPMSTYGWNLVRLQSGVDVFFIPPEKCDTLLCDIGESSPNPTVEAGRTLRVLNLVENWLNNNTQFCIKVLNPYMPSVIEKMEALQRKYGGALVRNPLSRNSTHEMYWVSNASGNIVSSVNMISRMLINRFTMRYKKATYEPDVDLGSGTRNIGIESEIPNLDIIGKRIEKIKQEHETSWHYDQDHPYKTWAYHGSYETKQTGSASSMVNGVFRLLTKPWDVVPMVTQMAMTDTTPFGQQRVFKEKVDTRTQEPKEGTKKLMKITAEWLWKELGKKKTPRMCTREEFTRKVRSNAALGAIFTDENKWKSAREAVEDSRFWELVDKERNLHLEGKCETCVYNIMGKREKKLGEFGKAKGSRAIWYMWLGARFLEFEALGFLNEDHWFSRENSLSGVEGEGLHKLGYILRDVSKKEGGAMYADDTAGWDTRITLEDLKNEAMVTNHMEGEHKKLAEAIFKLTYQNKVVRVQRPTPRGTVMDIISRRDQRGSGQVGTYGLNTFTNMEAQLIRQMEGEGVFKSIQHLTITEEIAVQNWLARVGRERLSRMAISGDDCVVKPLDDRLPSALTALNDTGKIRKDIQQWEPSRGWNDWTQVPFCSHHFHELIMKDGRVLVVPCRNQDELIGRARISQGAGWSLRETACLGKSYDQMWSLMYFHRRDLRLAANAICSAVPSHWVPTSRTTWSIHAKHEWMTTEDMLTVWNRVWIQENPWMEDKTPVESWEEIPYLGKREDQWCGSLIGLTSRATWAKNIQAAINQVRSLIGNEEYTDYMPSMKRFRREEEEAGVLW
Chain of Cytochrome P450 2C9 (P11712 whole entry): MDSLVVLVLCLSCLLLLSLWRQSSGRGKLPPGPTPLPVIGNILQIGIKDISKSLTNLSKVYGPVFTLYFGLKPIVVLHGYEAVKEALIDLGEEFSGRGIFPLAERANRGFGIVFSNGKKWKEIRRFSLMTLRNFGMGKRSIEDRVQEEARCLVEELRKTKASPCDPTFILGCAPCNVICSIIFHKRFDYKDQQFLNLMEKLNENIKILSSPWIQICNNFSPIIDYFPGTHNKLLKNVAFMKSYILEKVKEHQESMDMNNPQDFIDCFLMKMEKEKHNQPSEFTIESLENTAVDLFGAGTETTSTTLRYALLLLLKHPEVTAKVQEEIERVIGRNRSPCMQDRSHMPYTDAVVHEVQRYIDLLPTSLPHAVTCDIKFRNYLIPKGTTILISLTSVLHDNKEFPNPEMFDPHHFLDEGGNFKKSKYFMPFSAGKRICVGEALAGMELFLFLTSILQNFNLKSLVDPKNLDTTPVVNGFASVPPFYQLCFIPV
Chain of Cytochrome P450 2C19 (P33261 whole entry): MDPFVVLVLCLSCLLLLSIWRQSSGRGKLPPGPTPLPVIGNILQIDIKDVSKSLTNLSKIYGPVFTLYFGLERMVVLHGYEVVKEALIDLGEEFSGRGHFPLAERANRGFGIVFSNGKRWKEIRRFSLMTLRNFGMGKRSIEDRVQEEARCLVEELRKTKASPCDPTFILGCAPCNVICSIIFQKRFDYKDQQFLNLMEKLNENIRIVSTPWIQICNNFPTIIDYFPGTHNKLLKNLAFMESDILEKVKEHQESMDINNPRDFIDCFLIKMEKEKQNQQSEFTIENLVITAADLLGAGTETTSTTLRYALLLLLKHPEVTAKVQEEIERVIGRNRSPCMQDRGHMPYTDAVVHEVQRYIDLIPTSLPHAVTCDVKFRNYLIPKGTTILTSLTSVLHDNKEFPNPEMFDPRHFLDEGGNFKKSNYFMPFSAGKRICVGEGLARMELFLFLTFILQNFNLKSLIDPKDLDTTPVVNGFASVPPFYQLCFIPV
T4 sequence (P11940 whole entry): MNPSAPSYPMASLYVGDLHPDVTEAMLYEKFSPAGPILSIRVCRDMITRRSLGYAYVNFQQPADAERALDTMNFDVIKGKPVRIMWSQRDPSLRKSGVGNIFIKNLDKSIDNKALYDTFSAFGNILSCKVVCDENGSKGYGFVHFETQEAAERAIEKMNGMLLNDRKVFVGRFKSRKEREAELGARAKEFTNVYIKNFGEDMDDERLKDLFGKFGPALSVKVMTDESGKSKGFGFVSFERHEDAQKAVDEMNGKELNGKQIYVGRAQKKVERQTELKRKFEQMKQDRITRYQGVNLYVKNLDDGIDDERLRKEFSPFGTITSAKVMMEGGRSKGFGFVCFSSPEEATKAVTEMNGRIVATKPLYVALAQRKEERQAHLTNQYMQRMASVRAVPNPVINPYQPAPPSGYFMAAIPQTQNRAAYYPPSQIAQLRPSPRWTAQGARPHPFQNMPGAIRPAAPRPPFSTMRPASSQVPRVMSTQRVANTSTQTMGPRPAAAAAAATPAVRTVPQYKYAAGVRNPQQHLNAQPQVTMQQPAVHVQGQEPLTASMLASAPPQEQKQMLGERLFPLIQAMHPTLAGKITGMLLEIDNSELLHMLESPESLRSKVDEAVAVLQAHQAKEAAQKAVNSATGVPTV
Chain of Luciferin 4-monooxygenase (P08659 whole entry): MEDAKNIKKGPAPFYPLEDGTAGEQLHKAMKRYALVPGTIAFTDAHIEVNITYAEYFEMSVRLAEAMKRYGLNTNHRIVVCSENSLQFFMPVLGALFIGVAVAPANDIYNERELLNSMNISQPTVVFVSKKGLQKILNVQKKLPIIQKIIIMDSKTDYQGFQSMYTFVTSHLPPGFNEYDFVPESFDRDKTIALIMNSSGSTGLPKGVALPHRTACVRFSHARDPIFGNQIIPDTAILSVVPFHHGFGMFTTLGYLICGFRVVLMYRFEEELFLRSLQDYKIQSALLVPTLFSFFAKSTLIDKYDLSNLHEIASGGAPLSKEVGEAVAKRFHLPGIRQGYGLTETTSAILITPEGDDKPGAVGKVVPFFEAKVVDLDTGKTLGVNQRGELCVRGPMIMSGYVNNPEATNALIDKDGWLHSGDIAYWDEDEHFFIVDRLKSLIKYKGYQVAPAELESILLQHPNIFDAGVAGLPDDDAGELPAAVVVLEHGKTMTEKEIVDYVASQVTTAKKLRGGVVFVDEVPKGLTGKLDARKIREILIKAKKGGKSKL

SMILES: C#CCOc1c(Cl)cc(/C=C2/C(=O)ON=C2C)cc1OCC
- IC50 (Genome polyprotein): > 100 µM (active)

SMILES: O=C1NC(=O)C(=Cc2cc3c(cc2[N+](=O)[O-])OCO3)C(=O)N1
- AC50 [1]: > 380 µM (inactive)
- EC50 (Protein RecA): > 380 µM (inconclusive)
- IC50 (Genome polyprotein): 21.4 µM (active)

SMILES: O=C(OC[C@@H](O)CO)c1ccccc1Nc1ccnc2cc(Cl)ccc12
- AC50 (Cytochrome P450 2C19): 3.98 µM (inconclusive)
- AC50 (Cytochrome P450 2D6): 12.6 µM (inconclusive)
- AC50 (Cytochrome P450 2C9): 15.8 µM (inconclusive)

SMILES: CC#CC(=O)N1CCC(CCc2ccccc2)(C(=O)OCC)CC1
- EC50 [2]: > 120 µM (not active)

SMILES: O=C(Nc1ccc(S(=O)(=O)N2CCOCC2)cc1)c1ccc([N+](=O)[O-])cc1Cl
- EC50 [3]: 0.867 µM (active)
- EC50 [4]: > 30 µM (not active)
- IC50 [5]: 15.1 µM (active)

SMILES: c1ccc(Sc2ccccc2CN2CCCC2)cc1
- EC50 [6]: > 120 µM (not active)
- EC50 [2]: > 120 µM (not active)
- EC50 [7]: > 120 µM (not active)

SMILES: N#Cc1c(NC(=O)C(F)(F)F)sc2c3c(=O)c4ccccc4c(=O)c=3oc3ccccc3c12
- AC50 (Cytochrome P450 2D6): 0.794 µM (inconclusive)
- AC50 (Cytochrome P450 3A4): 3.98 µM (inconclusive)

SMILES: O=C(COc1ccccc1)Nc1nnc(-c2ccc(Cl)cc2)o1
- IC50 (cells): 34.6 µM (active)

SMILES: Nc1nonc1C(=O)NCCNCc1cc(Br)ccc1OCc1ccc(F)cc1
- AC50 [8]: 3.74 µM (active)
- AC50 [9]: 38.6 µM (active)
- AC50 [10]: 8.32 µM (active)

SMILES: Clc1ccc(C[n+]2cc(-c3ccccc3)n3c2CCCCC3)c(Cl)c1
- EC50 [3]: 0.273 µM (active)
- EC50 [4]: 15.3 µM (active)
- AC50 [8]: 1.2 µM (active)
- AC50 [9]: > 70 µM (inactive)
- AC50 [10]: 1.21 µM (active)

SMILES: O=C1OC(c2ccccc2)C(C(=O)c2ccc(Cl)cc2)=C1O (stereo not given)
- IC50 (Genome polyprotein): 83.4 µM (active)

SMILES: CC1=NN(C(N)=S)C(=O)C1N=Nc1c(Br)cc(Br)cc1Br (stereo not given)
- EC50 [11]: 2.76 µM (active)
- EC50 (Streptococcus): 8.6 µM (active)
- IC50 [5]: 12 µM (active)
- IC50 (Genome polyprotein): 43.5 µM (active)

SMILES: COC(=O)C1=C(C(=O)OC)C(c2ccccc2O)c2sc(O)nc2S1 (stereo not given)
- IC50 (Genome polyprotein): 93.2 µM (active)
- IC50 [12]: > 66 µM (inactive)
- IC50 [13]: > 66 µM (inactive)

SMILES: Cc1ccc(OC(=O)CCS(=O)(=O)c2ccc(C)cc2)cc1
- IC50 (cells): < 0.1 µM (active)

SMILES: CN(C)c1ncc2nc(CCc3ccccc3)c(=O)n(C3CC3)c2n1
- AC50 (Cytochrome P450 2D6): 10 µM (inconclusive)
- AC50 (Cytochrome P450 3A4): 10 µM (inconclusive)

SMILES: CC1CCC(NC(=O)c2ccc(NC(=O)CC3SC(N4CCCC4)=NC3=O)cc2)CC1 (stereo not given)
- IC50 [5]: 14.5 µM (active)

SMILES: CCCCCn1c(=O)c(C(=O)OCC)c(Cl)c2ccccc21
- IC50 [5]: 19.1 µM (active)

SMILES: CCC(=O)c1ccc(OCc2ccc(C(=O)OC)cc2)cc1
- IC50 (cells): 38.8 µM (active)

SMILES: Cc1c(C(=O)Nc2ccc(S(=O)(=O)NCC3CCCO3)cc2)cccc1[N+](=O)[O-] (stereo not given)
- IC50 [5]: 14.5 µM (active)

SMILES: CC1=NN(C(=O)c2ccccc2F)C(O)(c2ccc(Cl)cc2)C1 (stereo not given)
- IC50 (cells): > 50 µM (active)

SMILES: Cc1ccccc1-n1nc2c(c1NC(=O)C1CCCC1)CS(=O)(=O)C2
- EC50 [6]: > 120 µM (not active)
- EC50 [2]: > 120 µM (not active)
- EC50 [7]: > 120 µM (not active)

SMILES: Cc1cc(C)n2nc(N)c(N=Nc3ccccc3)c2n1
- EC50 [14]: > 112 µM (not active)
- EC50 [15]: > 112 µM (not active)
- IC50 (cells): 5.78 µM (active)

SMILES: O=C(Nc1ccc(OC(F)(F)F)cc1)c1n[nH]c(Cn2cncn2)n1
- AC50 (Cytochrome P450 2C19): 2.51 µM (inconclusive)
- AC50 (Cytochrome P450 2D6): 20 µM (inconclusive)
- AC50 (Cytochrome P450 3A4): 15.8 µM (inconclusive)
- AC50 (Cytochrome P450 2C9): 11.2 µM (inconclusive)

SMILES: CC(C)n1c(/C=C/[C@H](O)C[C@H](O)CC(=O)O)c(-c2ccc(F)cc2)c2ccccc21
- AC50 [8]: 1.42 µM (active)
- AC50 [9]: > 70 µM (inactive)
- AC50 [10]: 5.95 µM (active)

SMILES: O=C(C/C=N\OCc1ccc([N+](=O)[O-])cc1)Nc1ccc(F)cc1F
- IC50 (cells): 33 µM (active)

— ChEMBL document CHEMBL1201862, “PubChem BioAssay data set” (2004)
